ChEMBL document CHEMBL1201862, “PubChem BioAssay data set” (2004)
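All cell lines were grown in 96-well plates and treated with compound for 48 hours. At the GI50, growth is halved.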 Calls of active or inactive are those of the source. Cut-off read from the data, not from the text of the source: active = GI50 up to about 1.1 µM and inactive = higher.

Columns and labels:
Test in all cases: NCI anticancer screen, dose series, 48 h
[1] = test system: OVCAR-5
[2] = test system: RPMI-8226
[3] = test system: Hs-578T
[4] = test system: TK-10
[5] = test system: HOP-92
[6] = test system: HL-60
[7] = test system: LOX IMVI
[8] = test system: EKVX
[9] = test system: Malme-3M
[10] = test system: UO-31
[11] = test system: SK-MEL-2
[12] = test system: SK-OV-3
[13] = test system: DLD-1
[14] = test system: COLO 205
[15] = test system: A498
[16] = test system: RXF 393
[17] = test system: SN12C
[18] = test system: SF-268
[19] = test system: OVCAR-3
[20] = test system: SF-539

Measured: GI50

CCN(CC)CCNC(=O)c1nn(-c2ccc(Cl)cc2)c2c1CCc1cc(OC)ccc1-2
inactive: [1] 4.75 µM | [2] 2.9 µM | [3] 3.26 µM | [4] 11 µM | [5] 5.51 µM | [6] 2.7 µM | [7] 2.03 µM | [8] 10.2 µM | [9] 1.6 µM | [10] 2.49 µM | [11] 1.68 µM | [12] 13.7 µM | [13] 3.54 µM | [14] 2.26 µM | [15] 8.61 µM | [16] 3.04 µM | [17] 10.4 µM | [18] 7.19 µM | [19] 7.24 µM | [20] 4.21 µM
